These results are taken from ChEMBL document CHEMBL1146367, “Substituted thiophene-anthranilamides as potent inhibitors of human factor Xa” (Bioorg Med Chem, 2007).

One assay deals with Coagulation factor X (Homo sapiens, UniProt P00742). The assay is described as follows: Binding affinity to human factor 10a after 10 mins. The conditions noted are these: read-out: Ki app.
Another assay addresses Prothrombin (Homo sapiens, UniProt P00734). The assay is described as follows: Binding affinity to human thrombin after 10 mins. Conditions: read-out: Ki app.
Assay [1] in a line: Binding affinity to bovine trypsin after 10 mins. Details: species or system Bos taurus. Conditions: read-out: Ki app.
A further assay relates to Plasma. The assay is described as follows: Anticoagulant activity in human plasma assessed as concentration required to double prothrombin time. Type of assay: functional, cell-free.

Sequence of Coagulation factor X (P00742 41-179 limits assumed): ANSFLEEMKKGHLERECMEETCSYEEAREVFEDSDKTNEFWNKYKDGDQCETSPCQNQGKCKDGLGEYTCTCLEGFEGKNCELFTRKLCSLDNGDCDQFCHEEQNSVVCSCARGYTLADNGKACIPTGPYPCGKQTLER
Sequence of Coagulation factor X (P00742 235-488 limits assumed): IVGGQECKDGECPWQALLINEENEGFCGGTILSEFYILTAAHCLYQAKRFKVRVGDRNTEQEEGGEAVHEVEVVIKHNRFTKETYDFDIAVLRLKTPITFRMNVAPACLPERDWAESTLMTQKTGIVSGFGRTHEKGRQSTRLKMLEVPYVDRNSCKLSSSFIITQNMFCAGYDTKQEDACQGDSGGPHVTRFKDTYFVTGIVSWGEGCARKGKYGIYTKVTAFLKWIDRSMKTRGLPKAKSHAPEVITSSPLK

Take `CC(=O)N1CCN(Cc2csc(C(=O)Nc3ccc(Cl)cc3C(=O)Nc3ccc(Cl)cc3)c2Cl)CC1`: the Ki on Coagulation factor X is 6 nM; on Prothrombin it was 4400 nM; in assay [1] it was above 5000 nM.

On to `Cc1ccc2c(Cl)c(C(=O)Nc3ccc(Cl)cc3C(=O)Nc3ccc(Cl)cc3)sc2c1`, for which the Ki at Coagulation factor X was 0.95 nM; on Prothrombin it was above 5000 nM; in assay [1], above 5000 nM.

For `CN1CCN(Cc2cc(Cl)c(C(=O)Nc3ccc(Cl)cc3C(=O)Nc3ccc(Cl)cc3)s2)CC1`, the Ki at Coagulation factor X was 5.6 nM; at Prothrombin, 1000 nM; in assay [1] it was above 5000 nM. Moreover, in the assay with Plasma, the Cp was determined as 13 µM.

Turning to `O=C(Nc1ccc(Cl)cc1)c1cc(Cl)ccc1NC(=O)c1scc(Cn2cncn2)c1Cl`, the Ki at Coagulation factor X was 1.6 nM; at Prothrombin it was 2400 nM; in assay [1], above 5000 nM. Besides, the Cp with Plasma turned out to be 18 µM.

Turning to `CCCNCc1sc(C(=O)Nc2ccc(Cl)cc2C(=O)Nc2ccc(Cl)cc2)c(Cl)c1CNCCC`, the Ki is 7.5 nM at Coagulation factor X, 1500 nM on Prothrombin and above 5000 nM in assay [1]. Besides, the Cp in the assay with Plasma turned out to be 19 µM.

Turning to `CN(CCOCCO)Cc1csc(C(=O)Nc2ccc(Cl)cc2C(=O)Nc2ccc(Cl)cc2)c1Cl`, the values for the Ki (at Coagulation factor X; on Prothrombin; in assay [1]) were 1.5 nM, 1100 nM and above 5000 nM, respectively. For the same compound, the Cp with Plasma was 8.8 µM.

With `CN1CCN(Cc2ccc3c(Cl)c(C(=O)Nc4ccc(Cl)cc4C(=O)Nc4ccc(Cl)cc4)sc3c2)CC1`, the Ki on Coagulation factor X is 21 nM; on Prothrombin, above 5000 nM; in assay [1], above 5000 nM.

As for `Cc1cccc2sc(C(=O)Nc3ccc(Cl)cc3C(=O)Nc3ccc(Cl)cc3)c(Cl)c12`, the Ki (at Coagulation factor X; at Prothrombin; in assay [1]) was above 5000 nM in each case.

Regarding `Cc1csc(C(=O)Nc2ccc(Cl)cc2C(=O)Nc2ccc(Cl)cc2)c1Cl`, the figures for the Ki (at Coagulation factor X; at Prothrombin; in assay [1]) were 18 nM, above 5000 nM and above 5000 nM, respectively.

For the compound `C[S+]([O-])Cc1csc(C(=O)Nc2ccc(Cl)cc2C(=O)Nc2ccc(Cl)cc2)c1Cl` (stereo unspecified), the Ki at Coagulation factor X was 0.4 nM; at Prothrombin, 970 nM; in assay [1], above 5000 nM. Moreover, the Cp with Plasma turned out to be 5.6 µM.

Regarding `CN(C)CCCN(C)Cc1csc(C(=O)Nc2ccc(Cl)cc2C(=O)Nc2ccc(Cl)cc2)c1Cl`, the Ki was 0.6 nM at Coagulation factor X, 190 nM on Prothrombin and above 5000 nM in assay [1]. Besides, the Cp in the assay on Plasma came out at 2.9 µM.

For `COCCOCCOCc1csc(C(=O)Nc2ccc(Cl)cc2C(=O)Nc2ccc(Cl)cc2)c1Cl`, the Ki at Coagulation factor X was 10 nM; at Prothrombin, 3600 nM; in assay [1], above 5000 nM. Further, the Cp in the assay on Plasma was found to be 95 µM.

`Cc1cc(Cl)c(C(=O)Nc2ccc(Cl)cc2C(=O)Nc2ccc(Cl)cc2)s1`: the figures for the Ki (at Coagulation factor X; on Prothrombin; in assay [1]) were 24 nM, above 5000 nM and above 5000 nM, respectively.

In the case of `O=C(Nc1ccc(Cl)cc1)c1cc(Cl)ccc1NC(=O)c1scc(CN2CCOCC2)c1Cl`, the Ki at Coagulation factor X was 6.2 nM; on Prothrombin it was 2300 nM; in assay [1], above 5000 nM. The Cp in the assay on Plasma was 59 µM.

Regarding `O=C(Nc1ccc(Cl)cc1)c1cc(Cl)ccc1NC(=O)c1scc(Cn2nccn2)c1Cl`, the results for the Ki (at Coagulation factor X; at Prothrombin; in assay [1]) were 3.5 nM, 3300 nM and above 5000 nM, respectively. In addition, the Cp in the assay with Plasma was 83 µM.

For the compound `CN1CCN(Cc2c(C(=O)Nc3ccc(Cl)cc3C(=O)Nc3ccc(Cl)cc3)sc3ccccc23)CC1`, the Ki on Coagulation factor X was 20 nM; at Prothrombin it was 1000 nM; in assay [1] it was above 5000 nM.

`O=C(O)CN1CCN(Cc2ccc3c(Cl)c(C(=O)Nc4ccc(Cl)cc4C(=O)Nc4ccc(Cl)cc4)sc3c2)CC1`: the Ki is 9.5 nM on Coagulation factor X, above 5000 nM on Prothrombin and above 5000 nM in assay [1].

In the case of `CS(=O)(=O)Cc1csc(C(=O)Nc2ccc(Cl)cc2C(=O)Nc2ccc(Cl)cc2)c1Cl`, the values for the Ki (at Coagulation factor X; on Prothrombin; in assay [1]) were 2.1 nM, above 5000 nM and above 5000 nM, respectively. Further, in the assay with Plasma, the Cp turned out to be 14 µM.

`O=C(Nc1ccc(Cl)cc1)c1cc(Cl)ccc1NC(=O)c1sc2ccccc2c1Cl`: the Ki (on Prothrombin; in assay [1]) was above 5000 nM each time.

For `COCCOCc1csc(C(=O)Nc2ccc(Cl)cc2C(=O)Nc2ccc(Cl)cc2)c1Cl`, the Ki at Coagulation factor X is 12 nM; on Prothrombin, above 5000 nM; in assay [1] it was above 5000 nM. For the same compound, in the assay with Plasma, the Cp was 110 µM.

Consider `CCN1CCN(Cc2csc(C(=O)Nc3ccc(Cl)cc3C(=O)Nc3ccc(Cl)cc3)c2Cl)CC1`, for which the Ki was 1.6 nM at Coagulation factor X, above 5000 nM on Prothrombin and above 5000 nM in assay [1]. Besides, the Cp in the assay on Plasma worked out at 12 µM.

Regarding `O=C(Nc1ccc(Cl)cc1)c1cc(Cl)ccc1NC(=O)c1scc(Cn2ncnn2)c1Cl`, the Ki at Coagulation factor X is 2 nM; at Prothrombin, above 5000 nM; in assay [1] it was above 5000 nM. In the assay with Plasma, the Cp came out at 63 µM.

As for `CC1(C)OCC(COCc2csc(C(=O)Nc3ccc(Cl)cc3C(=O)Nc3ccc(Cl)cc3)c2Cl)O1` (stereo unspecified), the Ki on Coagulation factor X was 20 nM; at Prothrombin, above 5000 nM; in assay [1], above 5000 nM.

In the case of `Cc1c(C(=O)Nc2ccc(Cl)cc2C(=O)Nc2ccc(Cl)cc2)sc2ccccc12`, the Ki on Coagulation factor X was 0.82 nM; at Prothrombin, above 5000 nM; in assay [1], above 5000 nM.

As to `CN(C)Cc1ccc2c(Cl)c(C(=O)Nc3ccc(Cl)cc3C(=O)Nc3ccc(Cl)cc3)sc2c1`, the Ki on Coagulation factor X is 14 nM; on Prothrombin, above 5000 nM; in assay [1], above 5000 nM.

On to `CN(C)CCN(C)Cc1csc(C(=O)Nc2ccc(Cl)cc2C(=O)Nc2ccc(Cl)cc2)c1Cl`, for which the results for the Ki (at Coagulation factor X; on Prothrombin; in assay [1]) were 0.45 nM, 160 nM and above 5000 nM, respectively. Besides, the Cp in the assay with Plasma was 4.6 µM.

Take `O=C(Nc1ccc(Cl)cc1)c1cc(Cl)ccc1NC(=O)c1scc(Cn2cccn2)c1Cl`: the values for the Ki (on Coagulation factor X; on Prothrombin; in assay [1]) were 2.1 nM, 550 nM and above 5000 nM, respectively. Moreover, the Cp with Plasma was 49 µM.

Turning to `O=C(Nc1ccc(Cl)cc1)c1cc(Cl)ccc1NC(=O)c1scc(Cn2cnnn2)c1Cl`, the Ki was 1.7 nM on Coagulation factor X, above 5000 nM on Prothrombin and above 5000 nM in assay [1]. In addition, the Cp in the assay with Plasma is 29 µM.

In the case of `O=C(Nc1ccc(Cl)cc1)c1cc(Cl)ccc1NC(=O)c1scc(CNCCCn2ccnc2)c1Cl`, the figures for the Ki (on Coagulation factor X; at Prothrombin; in assay [1]) were 4.6 nM, 1800 nM and above 5000 nM, respectively. For the same compound, in the assay with Plasma, the Cp stood at 24 µM.

On to `Cc1sc(C(=O)Nc2ccc(Cl)cc2C(=O)Nc2ccc(Cl)cc2)c(Cl)c1CN1CCN(C)CC1`, for which the results for the Ki (at Coagulation factor X; at Prothrombin; in assay [1]) were 12 nM, 4400 nM and above 5000 nM, respectively. The Cp with Plasma is 25 µM.

As for `O=C(Nc1ccc(Cl)cc1)c1cc(Cl)ccc1NC(=O)c1scc(CNCCOCCO)c1Cl`, the figures for the Ki (on Coagulation factor X; on Prothrombin; in assay [1]) were 3.4 nM, 3200 nM and above 5000 nM, respectively. Also, the Cp in the assay on Plasma was determined as 20 µM.

In the case of `O=C(Nc1ccc(Cl)cc1)c1cc(Cl)ccc1NC(=O)c1sc(Cn2ccnc2)cc1Cl`, the Ki was 7.2 nM at Coagulation factor X, 510 nM at Prothrombin and above 5000 nM in assay [1]. In addition, in the assay on Plasma, the Cp amounted to 24 µM.

In the case of `O=C(Nc1ccc(Cl)cc1)c1cc(Cl)ccc1NC(=O)c1scc(Cn2ccnn2)c1Cl`, the Ki is 1.4 nM at Coagulation factor X, 2700 nM on Prothrombin and above 5000 nM in assay [1]. Moreover, the Cp in the assay on Plasma is 15 µM.

Take `O=C(Nc1ccc(Cl)cc1)c1cc(Cl)ccc1NC(=O)c1scc(Cn2ccnc2)c1Cl`: the Ki on Coagulation factor X is 1.9 nM; on Prothrombin, 1000 nM; in assay [1] it was above 5000 nM. In the assay on Plasma, the Cp amounted to 18 µM.

Regarding `O=C(Nc1ccc(Cl)cc1)c1cc(Cl)ccc1NC(=O)c1scc(COCC(O)CO)c1Cl` (stereo unspecified), the Ki on Coagulation factor X was 5.7 nM; at Prothrombin, 2400 nM; in assay [1] it was above 5000 nM. Further, the Cp in the assay with Plasma worked out at 30 µM.

`Cc1c(CN2CCN(C)CC2)sc(C(=O)Nc2ccc(Cl)cc2C(=O)Nc2ccc(Cl)cc2)c1Cl`: the values for the Ki (at Coagulation factor X; at Prothrombin; in assay [1]) were 10 nM, 1500 nM and above 5000 nM, respectively. The Cp with Plasma stood at 58 µM.

In the case of `CN(CCN1CCCC1)Cc1csc(C(=O)Nc2ccc(Cl)cc2C(=O)Nc2ccc(Cl)cc2)c1Cl`, the Ki on Coagulation factor X is 0.3 nM; at Prothrombin it was 160 nM; in assay [1], above 5000 nM. In the assay on Plasma, the Cp came to 5 µM.

As to `CN(C)Cc1c(C(=O)Nc2ccc(Cl)cc2C(=O)Nc2ccc(Cl)cc2)sc2ccccc12`, the Ki at Coagulation factor X was 9 nM; on Prothrombin, 1200 nM; in assay [1] it was above 5000 nM.

Consider `CN1CCC(N(C)Cc2csc(C(=O)Nc3ccc(Cl)cc3C(=O)Nc3ccc(Cl)cc3)c2Cl)CC1`, for which the Ki is 0.38 nM on Coagulation factor X, 310 nM at Prothrombin and above 5000 nM in assay [1]. The Cp in the assay on Plasma worked out at 3.2 µM.

For `O=C(Nc1ccc(Cl)cc1)c1cc(Cl)ccc1NC(=O)c1scc(CN2CCSCC2)c1Cl`, the results for the Ki (on Coagulation factor X; at Prothrombin; in assay [1]) were 4.8 nM, above 5000 nM and above 5000 nM, respectively. Besides, the Cp in the assay on Plasma stood at 400 µM.

Turning to `O=C(Nc1ccc(Cl)cc1)c1cc(Cl)ccc1NC(=O)c1sc(CN2CCOCC2)cc1Cl`, the Ki at Coagulation factor X is 34 nM; on Prothrombin, above 5000 nM; in assay [1], above 5000 nM. Further, the Cp with Plasma is above 500 µM.

For the compound `CSCc1csc(C(=O)Nc2ccc(Cl)cc2C(=O)Nc2ccc(Cl)cc2)c1Cl`, the Ki on Coagulation factor X is 0.8 nM; on Prothrombin, above 5000 nM; in assay [1] it was above 5000 nM. Moreover, the Cp in the assay with Plasma is above 200 µM.

Take `CCOC(=O)CN(C)Cc1csc(C(=O)Nc2ccc(Cl)cc2C(=O)Nc2ccc(Cl)cc2)c1Cl`: the Ki at Coagulation factor X was 5.2 nM; on Prothrombin it was 2300 nM; in assay [1], above 5000 nM. For the same compound, the Cp with Plasma was determined as 160 µM.

Turning to `CN(CCO)Cc1csc(C(=O)Nc2ccc(Cl)cc2C(=O)Nc2ccc(Cl)cc2)c1Cl`, the Ki at Coagulation factor X is 0.8 nM; at Prothrombin, 830 nM; in assay [1] it was above 5000 nM. Further, the Cp with Plasma stood at 7 µM.

Regarding `CCN(CC)CCN(C)Cc1csc(C(=O)Nc2ccc(Cl)cc2C(=O)Nc2ccc(Cl)cc2)c1Cl`, the Ki at Coagulation factor X is 0.52 nM; at Prothrombin, 120 nM; in assay [1], above 5000 nM. Also, in the assay with Plasma, the Cp came to 3.9 µM.
